Assay results taken from patent US11453703B2, “Heterotandem bicyclic peptide complexes” (BicycleTX Limited, priority 2018, dated 2022).

Columns and labels:
CD137 = CD137 (Homo sapiens, UniProt Q07011); assay: CD137 reporter assay, co-culture with Nectin-4 tumour cells; format: cell-based; parameters: host or cells: Jurkat reporter cells;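 also: jurkat reporter cells co-cultured with tumour cells and test article for 6 h, luminescence signal relative to Jurkat plus tumour cells lacking test article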
Experimental: Culture medium referred to as R1 media is prepared by adding 1% FBS to RPMI-1640 (component of Promega kit CS196005). Serial dilutions of test articles in R1 are prepared in a sterile 96 well-plate. Use 25 μl per well of test articles or R1 (as a background control) to designated wells in white cell culture plate. Tumour cells* are harvested and resuspended at a concentration of 400,000 cells/mL in R1 media. Twenty five (25) μL/well tumour cells are used in white cell culture plate. Jurkat cells (Promega kit CS196005, 0.5 mL) are thawed in the water bath and then added to 5 ml pre-warmed R1 medium. Twenty five (25) μL/well Jurkat cells are used in white cell culture plate. Incubate the cells and test articles for 6h at 37° C., 5% CO2. At the end of 6 h, add 75 μl/well Bio-Glo™ (Promega) and incubate for 10 min before reading luminescence in a plate reader (Clariostar, BMG). The fold change relative to cells (Jurkat cells+Cell line used in co-culture) is calculated and plotted in GraphPad Prism as log(agonist) vs response to determine EC50 (nM) and Fold Induction over background (Max)

[1] = test system: primary patient derived tumour cells; assay: Ex vivo culture of primary patient-derived lung tumours; format: cell-based, human; conditions: patient-derived lung tumour samples
Experimental: Primary patient derived tumour cells from Discovery Life Sciences (DLS) are thawed gently in 10 mL pre-warmed wash medium spiked fresh with Benzonase. The 3D spheroid kit from Greiner (cat #655840) is used to maintain cells in culture for 2 days. Briefly, tumour cells are counted with trypan blue using a haemocytometer. The cells are centrifuged at 1500 rpm for 5 min to wash, and the pellet is resuspended in 100 μL per 1×10^6 cells N3D nanoshuttle. To make them magnetic, cells are spun down at 1500 rpm for 5 min and resuspended; this process is repeated for a total of 4 times. After the final spin, cells are resuspended in the appropriate amount of fresh Lung DTC medium (DLS) to give 50,000-100,000 cells per well in 100 μL/well. Greiner cell-repellent, 96-well plates (cat #655976) are used for this experiment.
If there are cell clumps or debris visible, sample is applied to a 70-100 μm filter before plating. At least 50,000 cells per sample are reserved for a Day 0 flow cytometry panel, these cells are stained, fixed, and stored at 4° C. for later flow analysis. […] Cytokines are quantified using a custom-built cytokine/chemokine panel (IP-10, Granzyme B, IFNγ, IL-2, IL-6, TNFα, IL-8, MIP-1a, MIP-1b, MCP-1, IL-10, MIG) from R&D systems on a Luminex reader. […] Flow data is analysed with Flowjo software.

[2] = test system: human PBMC co-cultured with 4T1-D02 (Nectin4+); assay: Human PBMC-4T1 co-culture (cytokine release) assay; format: cell-based; conditions: anti-CD3 stimulated PBMC, 48 hours
Summary of the method: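 Healthy-donor human PBMCs co-cultured 5:1 with murine Nectin-4-overexpressing 4T1-D02 cells, stimulated with 125 ng/ml soluble anti-CD3 (OKT3) plus test compounds. IL-2 and IFNγ in 48 h supernatants measured by HTRF and interpolated from standard curves; three donors, each in duplicate.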

[3] = Pharmacokinetics of CD137 bispecifics in SD rats; format: in vivo; conditions: SD Rat, 2 mg/kg IV, plasma
Experimental: Male SD Rats were dosed with 2 mg/kg of each Bicycle multimer formulated in 25 mM Histidine HCl, 10% sucrose pH 7. Serial bleeding (about 80 μL blood/time point) was performed via submadibular or saphenous vein at each time point. All blood samples were immediately transferred into prechilled microcentrifuge tubes containing 2 μL K2-EDTA (0.5M) as anti-coagulant and placed on wet ice. Blood samples were immediately processed for plasma by centrifugation at approximately 4° C., 3000 g. The precipitant including internal standard was immediately added into the plasma, mixed well and centrifuged at 12,000 rpm, 4° C. for 10 minutes. The supernatant was transferred into pre-labeled polypropylene microcentrifuge tubes, and then quick-frozen over dry ice. The samples were stored at […] or below as needed until analysis. 7.5 μL of the supernatant samples were directly injected for LC-MS/MS analysis using an Orbitrap Q Exactive in positive ion mode to determine the concentrations of Bicycle multimer. Plasma concentration versus time data were analyzed by non-compartmental approaches using the Phoenix WinNonlin 6.3 software program. C0, CI, Vdss, T½, AUC(0-last), AUC(0-inf), MRT(0-last), MRT(0-inf) and graphs of plasma concentration versus time profile were reported.

CD137, sequence (Q07011 24-255): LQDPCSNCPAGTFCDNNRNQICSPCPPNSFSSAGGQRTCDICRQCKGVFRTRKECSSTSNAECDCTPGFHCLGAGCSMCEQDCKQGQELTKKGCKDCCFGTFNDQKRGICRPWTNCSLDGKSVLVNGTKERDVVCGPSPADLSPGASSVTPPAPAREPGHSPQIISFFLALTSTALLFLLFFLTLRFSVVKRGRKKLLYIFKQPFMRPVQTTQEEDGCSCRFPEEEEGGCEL

Q: For CCCC[C@@H]1NC(=O)[C@H](Cc2ccc(O)cc2)NC(=O)[C@@H]2CCCN2C(=O)[C@H](CC(=O)O)NC(=O)[C@H](C)NC(=O)[C@H](Cc2ccccc2)NC(=O)[C@@H]2CSCCC(=O)N3CN(CN(C3)C(=O)CCSC[C@@H](C(=O)N[C@@H](C)C(N)=O)NC1=O)C(=O)CCSC[C@H](NC(C)=O)C(=O)N[C@@H](CC(C)(C)C)C(=O)N1CCC[C@H]1C(=O)N[C@@H](CCC(=O)O)C(=O)N[C@H](CCCCNC(=O)CCc1cn(CCOCCOCCOCCOCCOCCC(=O)N[C@H]3CSCCC(=O)N4CN5CN(C4)C(=O)CCSC[C@H](NC(=O)[C@@H](CC(=O)O)NC(=O)[C@H](Cc4cccc6ccccc46)NC(=O)[C@@H]4CCCN4C3=O)C(=O)N[C@@H](CCSC)C(=O)N[C@@H](CCCCNC(=N)N)C(=O)N[C@@H](CC(=O)O)C(=O)N[C@@H](Cc3c[nH]c4ccccc34)C(=O)N[C@@H](CO)C(=O)N[C@@H]([C@@H](C)O)C(=O)N3CCC[C@H]3C(=O)N3C[C@H](O)C[C@H]3C(=O)N[C@@H](Cc3c[nH]c4ccccc34)C(=O)N[C@H](C(N)=O)CSCCC5=O)nn1)C(=O)N1CCC[C@H]1C(=O)N[C@@H](Cc1ccc(O)cc1)C(=O)N2 [BCY10572], which EC50 (CD137) is on record?
A: 0.44 nM

Q: What about the “Fold Induction over Background” value (CD137; tumour target Nectin4, co-culture with H1376, 6 h) of the same compound?
A: 55 fold

Q: What about the “change in immune markers (normalized to vehicle)” value ([1]; 48 h (FIG. 8)) of the same compound?
A: induced Nectin-4 dependent change in several immune markers

Q: What about the “change in % CD8+ki67+ T cells” value ([1]; Day 2 flow (FIG. 8)) of the same compound?
A: induced Nectin-4 dependent change

Q: And the EC50 ([2]; IFN-γ secretion)?
A: 0.25 nM

Q: And the “max IFN-y” value [2]?
A: 17915 pg/mL

Q: And the T½ [3]?
A: 55.6 min

Q: And the clearance ([3]; male, Sprague-Dawley (SD), read-out: Clp)?
A: 15.6 mL/min/kg

Q: And the Vd ([3]; male, Sprague-Dawley (SD), read-out: Vdss)?
A: 0.882 L/kg
